Test results reported in patent US20220054513A1, “COMBINATION COMPOSITIONS COMPRISING A BETA-LACTAMASE INHIBITOR” (VenatoRx Pharmaceuticals, Inc., priority 2018, published 2022).
Read-outs that look alike come from different tables or passages of the source.

How the values were obtained:
[1] = test system: Acinetobacter baumannii-calcoaceticus species complex clinical isolates; experiment: MIC of triple combinations (Compound 1, sulbactam, meropenem or cefepime), 141 clinical isolates; assay type: cell-based; details: Acinetobacter, Cmpd 1 at 4 μg/mL in combinations, read-out: MIC
Source text: For a more comprehensive assessment of the ability of test compounds to potentiate sulbactam in triple combinations with β-lactams additional MIC assays were utilized.

[2] = test system: multi-drug resistant Acinetobacter baumannii; experiment: broth microdilution MIC of sulbactam, ampicillin, cefepime and combinations +/- Compound 1, panel of 51 Acinetobacter isolates

Compound: CO/N=C(\C(=O)N[C@@H]1C(=O)N2C(C(=O)[O-])=C(C[N+]3(C)CCCC3)CS[C@H]12)c1csc(N)n1 [FEP, cefepime]
- MIC ([1]; strain 990089): 64 µg/mL
- MIC ([1]; strain 993131): 64 µg/mL
- MIC ([1]; strain 994180): 32 µg/mL
- MIC ([1]; strain 996612): > 512 µg/mL
- MIC ([1]; strain 996707): 64 µg/mL
- MIC ([1]; strain 996869): 32 µg/mL
- MIC ([1]; strain 997574): 16 µg/mL
- MIC ([1]; strain 998532): 64 µg/mL
- MIC ([1]; strain 998907): 8 µg/mL
- MIC ([1]; strain 999306): 8 µg/mL
- MIC ([1]; strain 1001611): 16 µg/mL
- MIC ([1]; strain 1002208): 64 µg/mL
- MIC ([1]; strain 1002247): > 512 µg/mL
- MIC ([1]; strain 1002688): 64 µg/mL
- MIC ([1]; strain 1002952): 64 µg/mL
- MIC ([1]; strain 1003557): 64 µg/mL
- MIC ([1]; strain 1003787): > 512 µg/mL
- MIC ([1]; strain 1008510): 64 µg/mL
- MIC ([1]; strain 1008730): 64 µg/mL
- MIC ([1]; strain 1010245): 64 µg/mL
- MIC ([1]; strain 1010331): > 512 µg/mL
- MIC ([1]; strain 1010950): > 512 µg/mL
- MIC ([1]; strain 1011959): 64 µg/mL
- MIC ([1]; strain 1013022): 64 µg/mL
- MIC ([1]; strain 1013035): 32 µg/mL
- MIC ([1]; strain 1014143): 32 µg/mL
- MIC ([1]; strain 1014646): 64 µg/mL
- MIC ([1]; strain 1016836): 64 µg/mL
- MIC ([1]; strain 1018109): 2 µg/mL
- MIC ([1]; strain 1018801): > 512 µg/mL
- MIC ([1]; strain 1023207): 32 µg/mL
- MIC ([1]; strain 1024119): 32 µg/mL
- MIC ([1]; strain 1024215): 32 µg/mL
- MIC ([1]; strain 1027234): 64 µg/mL
- MIC ([1]; strain 1027603): 64 µg/mL
- MIC ([1]; strain 1027748): 32 µg/mL
- MIC ([1]; strain 1028193): 32 µg/mL
- MIC ([1]; strain 1029913): 32 µg/mL
- MIC ([1]; strain 1030427): 32 µg/mL
- MIC ([1]; strain 1030928): > 512 µg/mL
- MIC ([1]; strain 1031191): 64 µg/mL
- MIC ([1]; strain 1032669): 64 µg/mL
- MIC ([1]; strain 1034880): 64 µg/mL
- MIC ([1]; strain 1034912): 64 µg/mL
- MIC ([1]; strain 1034925): 64 µg/mL
- MIC ([1]; strain 1035788): 32 µg/mL
- MIC ([1]; strain 1035794): 16 µg/mL
- MIC ([1]; strain 1035825): 64 µg/mL
- MIC ([1]; strain 1036045): 64 µg/mL
- MIC ([1]; strain 1036068): 64 µg/mL
- MIC ([1]; strain 1036768): > 512 µg/mL
- MIC ([1]; strain 1036781): 32 µg/mL
- MIC ([1]; strain 1036882): 16 µg/mL
- MIC ([1]; strain 1036921): 32 µg/mL
- MIC ([1]; strain 1037193): 32 µg/mL
- MIC ([1]; strain 1037256): 32 µg/mL
- MIC ([1]; strain 1037479): > 512 µg/mL
- MIC ([1]; strain 1037714): 4 µg/mL
- MIC ([1]; strain 1037732): 32 µg/mL
- MIC ([1]; strain 1037738): 32 µg/mL
- MIC ([1]; strain 1037747): > 512 µg/mL
- MIC ([1]; strain 1039502): > 512 µg/mL
- MIC ([1]; strain 1039515): 64 µg/mL
- MIC ([1]; strain 1039518): 64 µg/mL
- MIC ([1]; strain 1040900): 64 µg/mL
- MIC ([1]; strain 1040917): > 512 µg/mL
- MIC ([1]; strain 1042182): 32 µg/mL
- MIC50 [2]: 32 µg/mL
- MIC90 [2]: 128 µg/mL
- MIC ([2]; read-out: Minimum inhibitory concentration (MIC), strain 0273 (ADC-25, OXA-23, OXA-66)): 32 µg/mL
- MIC ([2]; read-out: Minimum inhibitory concentration (MIC), strain 0274 (TEM-1D, ADC-25, OXA-66, OXA-72)): 32 µg/mL
- MIC ([2]; read-out: Minimum inhibitory concentration (MIC), strain 0275 (TEM-1D, ADC-25, OXA-23, OXA-66)): 32 µg/mL
- MIC ([2]; read-out: Minimum inhibitory concentration (MIC), strain 0276 (enzyme content ND)): 128 µg/mL
- MIC ([2]; read-out: Minimum inhibitory concentration (MIC), strain 0277 (TEM-1B, OXA-65, OXA-24)): 128 µg/mL
- MIC ([2]; read-out: Minimum inhibitory concentration (MIC), strain 0278 (TEM-1D, ADC-25, OXA-23, OXA-66)): 32 µg/mL
- MIC ([2]; read-out: Minimum inhibitory concentration (MIC), strain 0279 (TEM-1D, ADC-25, OXA-23, OXA-66)): 32 µg/mL
- MIC ([2]; read-out: Minimum inhibitory concentration (MIC), strain 0280 (TEM-1D, ADC-25, OXA-66)): 16 µg/mL
- MIC ([2]; read-out: Minimum inhibitory concentration (MIC), strain 0281 (TEM-1D, ADC-25, OXA-82)): 16 µg/mL
- MIC ([2]; read-out: Minimum inhibitory concentration (MIC), strain 0282 (TEM-1D, ADC-25, OXA-23, OXA-66)): 64 µg/mL
- MIC ([2]; read-out: Minimum inhibitory concentration (MIC), strain 0283 (TEM-1D, ADC-25, OXA-23, OXA-66)): 16 µg/mL
- MIC ([2]; read-out: Minimum inhibitory concentration (MIC), strain 0284 (TEM-1B, OXA-65, OXA-24)): 32 µg/mL
- MIC ([2]; read-out: Minimum inhibitory concentration (MIC), strain 0285 (TEM-1B, OXA-65, OXA-24)): 32 µg/mL
- MIC ([2]; read-out: Minimum inhibitory concentration (MIC), strain 0286 (ADC-25, OXA-66, OXA-24)): 32 µg/mL
- MIC ([2]; read-out: Minimum inhibitory concentration (MIC), strain 0287 (ADC-25, OXA-66, OXA-72)): 32 µg/mL
- MIC ([2]; read-out: Minimum inhibitory concentration (MIC), strain 0288 (ADC-25, OXA-23, OXA-66)): 128 µg/mL
- MIC ([2]; read-out: Minimum inhibitory concentration (MIC), strain 0289 (ADC-25, OXA-66, OXA-72)): 32 µg/mL
- MIC ([2]; read-out: Minimum inhibitory concentration (MIC), strain 0290 (TEM-1D, ADC-25, OXA-23, OXA-66)): 32 µg/mL
- MIC ([2]; read-out: Minimum inhibitory concentration (MIC), strain 0291 (TEM-1D, ADC-25, OXA-23, OXA-66)): 8 µg/mL
- MIC ([2]; read-out: Minimum inhibitory concentration (MIC), strain 0292 (OXA-66, OXA-72)): 32 µg/mL
- MIC ([2]; read-out: Minimum inhibitory concentration (MIC), strain 0293 (OXA-66, OXA-72)): 16 µg/mL
- MIC ([2]; read-out: Minimum inhibitory concentration (MIC), strain 0294 (TEM-1B, OXA-23, OXA-65)): 32 µg/mL
- MIC ([2]; read-out: Minimum inhibitory concentration (MIC), strain 0295 (TEM-1D, ADC-25, OXA-23, OXA-66)): 32 µg/mL
- MIC ([2]; read-out: Minimum inhibitory concentration (MIC), strain 0296 (ADC-25, OXA-23, OXA-223)): 64 µg/mL
- MIC ([2]; read-out: Minimum inhibitory concentration (MIC), strain 0297 (ADC-25, OXA-23, OXA-66)): 32 µg/mL
- MIC ([2]; read-out: Minimum inhibitory concentration (MIC), strain 0298 (TEM-1D, ADC-25, OXA-66, OXA-237)): 32 µg/mL
- MIC ([2]; read-out: Minimum inhibitory concentration (MIC), strain 0299 (PER-7, OXA-23, OXA-203)): 128 µg/mL
- MIC ([2]; read-out: Minimum inhibitory concentration (MIC), strain 0300 (ADC-25, OXA-66)): 16 µg/mL
- MIC ([2]; read-out: Minimum inhibitory concentration (MIC), strain 0301 (ADC-25, OXA-66, OXA-72)): 128 µg/mL
- MIC ([2]; read-out: Minimum inhibitory concentration (MIC), strain 0302 (OXA-23, OXA-82)): 16 µg/mL
- MIC ([2]; read-out: Minimum inhibitory concentration (MIC), strain 0303 (ADC-25, OXA-23, OXA-66)): 16 µg/mL
- MIC ([2]; read-out: Minimum inhibitory concentration (MIC), strain 0304 (ADC-25, OXA-66, OXA-72)): 32 µg/mL
- MIC ([2]; read-out: Minimum inhibitory concentration (MIC), strain 0305 (TEM-1B, OXA-65, OXA-24)): 16 µg/mL
- MIC ([2]; read-out: Minimum inhibitory concentration (MIC), strain 0306 (TEM-1B, OXA-65, OXA-24)): 128 µg/mL
- MIC ([2]; read-out: Minimum inhibitory concentration (MIC), strain 0307 (ADC-25, OXA-66, OXA-237)): 32 µg/mL
- MIC ([2]; read-out: Minimum inhibitory concentration (MIC), strain 0308 (TEM-1D, ADC-25, OXA-71)): 16 µg/mL
- MIC ([2]; read-out: Minimum inhibitory concentration (MIC), strain 0309 (OXA-23, OXA-82)): 64 µg/mL
- MIC ([2]; read-out: Minimum inhibitory concentration (MIC), strain 0310 (OXA-23, OXA-82)): 32 µg/mL
- MIC ([2]; read-out: Minimum inhibitory concentration (MIC), strain 0311 (ADC-25, OXA-23, OXA-82)): 128 µg/mL
- MIC ([2]; read-out: Minimum inhibitory concentration (MIC), strain 0312 (OXA-69)): 32 µg/mL
- MIC ([2]; read-out: Minimum inhibitory concentration (MIC), strain 0313 (TEM-1D, OXA-23, OXA-69)): 64 µg/mL
- MIC ([2]; read-out: Minimum inhibitory concentration (MIC), strain 157834 (enzyme content ND)): 16 µg/mL
- MIC ([2]; read-out: Minimum inhibitory concentration (MIC), strain 157842 (enzyme content ND)): 4 µg/mL
- MIC ([2]; read-out: Minimum inhibitory concentration (MIC), strain 157876 (enzyme content ND)): 8 µg/mL
- MIC ([2]; read-out: Minimum inhibitory concentration (MIC), strain 157901 (enzyme content ND)): 16 µg/mL
- MIC ([2]; read-out: Minimum inhibitory concentration (MIC), strain 161750 (enzyme content ND)): 128 µg/mL
- MIC ([2]; read-out: Minimum inhibitory concentration (MIC), strain 161752 (enzyme content ND)): 16 µg/mL
- MIC ([2]; read-out: Minimum inhibitory concentration (MIC), strain 161755 (enzyme content ND)): 8 µg/mL
- MIC ([2]; read-out: Minimum inhibitory concentration (MIC), strain 161756 (enzyme content ND)): 8 µg/mL
- MIC ([2]; read-out: Minimum inhibitory concentration (MIC), strain 161760 (enzyme content ND)): 32 µg/mL
- MIC ([2]; read-out: Minimum inhibitory concentration (MIC), strain 161762 (enzyme content ND)): 8 µg/mL
